Experimental data from patent US20150141381A1, “TETRACYCLINE COMPOUNDS HAVING TARGET THERAPEUTIC ACTIVITIES” (Paratek Pharmaceuticals, Inc., priority 2001, published 2015).
Read-outs that look alike come from different tables or passages of the source.

Assays:
S. aureus RN450 = test: In Vitro Anti-Bacterial Activity Assay (MIC), gram positive; assay type: cell-based; conditions: for MIC: Staphylococcus aureus, RN450, 18 h
E. coli mL308 225 = test: In Vitro Anti-Bacterial Activity Assay (MIC), gram negative; assay type: cell-based; conditions: for MIC: Escherichia coli, ML308225, 18 h
[1] = gram positive bacteria, read-out: Antibiotic Activity Gram + (MIC)
[2] = gram negative bacteria, read-out: Antibiotic Activity Gram − (MIC)
[3] = MIC class, Table 3 (Continued), read-out: Gram+ activity
[4] = MIC class, Table 3 (Continued), read-out: Gram− activity
[5] = MIC class, Table 3, read-out: Antibiotic Activity Gram +
[6] = MIC class, Table 3, read-out: Antibiotic Activity Gram −

SMILES	MIC (S. aureus RN450; [1]) [µg/mL]	MIC (E. coli mL308 225; [2]) [µg/mL]	also measured
CN(C)c1cc(NCc2ccc(OC(F)(F)F)cc2)c(O)c2c1C[C@H]1C[C@H]3[C@H](N(C)C)C(O)=C(C(N)=O)C(=O)[C@@]3(O)C(O)=C1C2=O	< 4	> 4	
CC1CCN(CC(=O)c2ccc(O)c3c2C[C@H]2C[C@H]4[C@H](N(C)C)C(O)=C(C(N)=O)C(=O)[C@@]4(O)C(O)=C2C3=O)CC1	< 4	> 4	
CN(C)[C@@H]1C(O)=C(C(N)=O)C(=O)[C@@]2(O)C(O)=C3C(=O)c4c(O)ccc(-c5ccc(CNc6ccccc6)cc5)c4C[C@H]3C[C@@H]12	< 4	> 4	
CC1C(C(=O)[C@@H]2CC(=O)C(C(N)=O)=C(O)[C@H]2N(C)C)=C(C(=O)NCC(C)(C)C)C(=O)c2c(O)cccc21 (stereo partly drawn)	> 4	> 4	
CN(C)[C@@H]1C(O)=C(C(N)=O)C(=O)[C@@]2(O)C(O)=C3C(=O)c4c(O)ccc(CNC(=O)c5cnoc5)c4C[C@H]3C[C@@H]12	< 4	> 4	
CC1c2cccc(O)c2C(=O)C2=C(O)[C@]3(O)C(=O)C(C(N)=O)=C(O)[C@@H](N(C)C)[C@@H]3[C@@H](OC(=O)C3CCCCC3)[C@@H]21 (stereo partly drawn)			MIC (S. aureus RN450; [3]): < 4 µg/mL; MIC (E. coli mL308 225; [4]): < 4 µg/mL
CC(C)CN(C=O)Cc1cc(N(C)C)c2c(c1O)C(=O)C1=C(O)[C@]3(O)C(=O)C(C(N)=O)=C(O)[C@@H](N(C)C)[C@@H]3C[C@@H]1C2	> 4	> 4	
CN(C)[C@@H]1C(O)=C(C(N)=O)C(=O)[C@@]2(O)C(O)=C3C(=O)c4c(O)ccc(-c5ccc(C#N)cc5)c4C[C@H]3C[C@@H]12			MIC (S. aureus RN450; [3]): < 4 µg/mL; MIC (E. coli mL308 225; [4]): < 4 µg/mL
CC(CF)Nc1ccc(-c2ccc(O)c3c2C[C@H]2C[C@H]4[C@H](N(C)C)C(O)=C(C(N)=O)C(=O)[C@@]4(O)C(O)=C2C3=O)cc1 (stereo partly drawn)	< 4	> 4	
CN(C)[C@@H]1C(O)=C(C(N)=O)C(=O)[C@@]2(O)C(O)=C3C(=O)c4c(O)ccc(-c5ccc(NC(=O)NCCCCl)cc5)c4C[C@H]3C[C@@H]12	< 4	> 4	
Cc1ccc(C#Cc2ccc(O)c3c2C[C@H]2C[C@H]4[C@H](N(C)C)C(O)=C(C(N)=O)C(=O)[C@@]4(O)C(O)=C2C3=O)cc1			MIC (S. aureus RN450; [3]): < 4 µg/mL; MIC (E. coli mL308 225; [4]): < 4 µg/mL
CCOC(=O)/C(I)=C/C(=C/c1ccc(O)c2c1C[C@H]1C[C@H]3[C@H](N(C)C)C(O)=C(C(N)=O)C(=O)[C@@]3(O)C(O)=C1C2=O)C(=O)OCC [AX]			MIC (S. aureus RN450; [5]): > 4 µg/mL; MIC (E. coli mL308 225; [6]): > 4 µg/mL
COc1ccc(CNCCC#N)cc1-c1ccc(O)c2c1C[C@H]1C[C@H]3[C@H](N(C)C)C(O)=C(C(N)=O)C(=O)[C@@]3(O)C(O)=C1C2=O	< 4	> 4	
C[C@H]1c2c(CN)cc(C(C)(C)C)c(O)c2C(=O)C2=C(O)[C@]3(O)C(=O)C(C(N)=O)=C(O)[C@@H](N(C)C)[C@@H]3[C@@H](O)[C@@H]21	> 4	> 4	
CCc1cc(CN2CCC(F)(F)CC2)c(O)c2c1C[C@H]1C[C@H]3[C@H](N(C)C)C(O)=C(C(N)=O)C(=O)[C@@]3(O)C(O)=C1C2=O [drawing 3696]			Antibiotic Activity Gram + (MIC) (S. aureus RN450; gram positive bacteria): ** (compounds with MIC less than or equal to 4 μg/ml are indicated with **); Antibiotic Activity Gram − (MIC) (E. coli mL308 225; gram negative bacteria): ** (compounds with MIC less than or equal to 4 μg/ml are indicated with **)
C=C(Cl)c1ccc(O)c2c1C[C@H]1C[C@H]3[C@H](N(C)C)C(O)=C(C(N)=O)C(=O)[C@@]3(O)C(O)=C1C2=O [AW]			MIC (S. aureus RN450; [5]): < 4 µg/mL; MIC (E. coli mL308 225; [6]): < 4 µg/mL
CC(C)N1CCC(Nc2ccc3c(c2O)C(=O)C2=C(O)[C@]4(O)C(=O)C(C(N)=O)=C(O)[C@@H](N(C)C)[C@@H]4C[C@@H]2C3)CC1	< 4	> 4	
CN(C)[C@@H]1C(O)=C(C(N)=O)C(=O)[C@@]2(O)C(O)=C3C(=O)c4c(O)c(CN5CCCCC5)cc(-c5ccoc5)c4C[C@H]3C[C@@H]12 [PQ]			MIC (S. aureus RN450; [5]): < 4 µg/mL; MIC (E. coli mL308 225; [6]): < 4 µg/mL
COc1ccc(-c2ccc(O)c3c2C[C@H]2C[C@H]4[C@H](N(C)C)C(O)=C(C(N)=O)C(=O)[C@@]4(O)C(O)=C2C3=O)cc1 [drawing 3425]	< 4	< 4	
CC(C)c1cccc(-c2ccc(O)c3c2C[C@H]2C[C@H]4[C@H](N(C)C)C(O)=C(C(N)=O)C(=O)[C@@]4(O)C(O)=C2C3=O)c1	< 4	< 4	
CN(C)[C@@H]1C(O)=C(C(N)=O)C(=O)[C@@]2(O)C(O)=C3C(=O)c4c(O)ccc(/C=C/c5c(F)c(F)c(F)c(F)c5F)c4C[C@H]3C[C@@H]12			MIC (S. aureus RN450; [3]): < 4 µg/mL; MIC (E. coli mL308 225; [4]): > 4 µg/mL
CNCC#Cc1ccc(O)c2c1C[C@H]1C[C@H]3[C@H](N(C)C)C(O)=C(C(N)=O)C(=O)[C@@]3(O)C(O)=C1C2=O [KR]			MIC (S. aureus RN450; [5]): < 4 µg/mL; MIC (E. coli mL308 225; [6]): < 4 µg/mL
C[C@H]1c2ccc(-c3cc4ccccc4s3)c(O)c2C(=O)C2=C(O)[C@]3(O)C(=O)C(C(N)=O)=C(O)[C@@H](N(C)C)[C@@H]3[C@@H](O)[C@@H]21	< 4	< 4	

SMILES	MIC (S. aureus RN450; [1]) [µg/mL]	MIC (E. coli mL308 225; [2]) [µg/mL]	also measured
C#Cc1cc(N(C)C)c2c(c1O)C(=O)C1=C(O)[C@]3(O)C(=O)C(C(N)=O)=C(O)C(N(C)C)[C@@H]3C[C@@H]1C2 (stereo partly drawn)			MIC (S. aureus RN450; [3]): < 4 µg/mL; MIC (E. coli mL308 225; [4]): > 4 µg/mL
CN(C)[C@@H]1C(O)=C(C(N)=O)C(=O)[C@@]2(O)C(O)=C3C(=O)c4c(O)c(CN)cc(-c5cccc([N+](=O)O)c5)c4C[C@H]3C[C@@H]12 [DE]			MIC (S. aureus RN450; [5]): < 4 µg/mL; MIC (E. coli mL308 225; [6]): > 4 µg/mL
COc1ccc(-c2ccc(O)c3c2C[C@H]2C[C@H]4[C@H](N(C)C)C(O)=C(C(N)=O)C(=O)[C@@]4(O)C(O)=C2C3=O)cc1CN [HI]			MIC (S. aureus RN450; [5]): < 4 µg/mL; MIC (E. coli mL308 225; [6]): > 4 µg/mL
CCCOC(=O)Nc1ccc(-c2ccc(O)c3c2C[C@H]2C[C@H]4[C@H](N(C)C)C(O)=C(C(N)=O)C(=O)[C@@]4(O)C(O)=C2C3=O)cc1	< 4	< 4	
CNCc1cc(CNCC(C)(C)C)c2c(c1O)C(=O)C1=C(O)[C@]3(O)C(=O)C(C(N)=O)=C(O)[C@@H](N(C)C)[C@@H]3C[C@@H]1C2	> 4	> 4	
C[C@H]1c2ccc(N3CCCCC3)c(O)c2C(=O)C2=C(O)[C@]3(O)C(=O)C(C(N)=O)=C(O)[C@@H](N(C)C)[C@@H]3[C@@H](O)[C@@H]21 [JV]			MIC (S. aureus RN450; [5]): < 4 µg/mL; MIC (E. coli mL308 225; [6]): > 4 µg/mL
CC(C)CNCc1ccc(O)c2c1C[C@H]1C[C@H]3C(N(C)C)C(O)=C(C(N)=O)C(=O)[C@@]3(O)C(O)=C1C2=O (stereo partly drawn) [NF]			MIC (S. aureus RN450; [5]): < 4 µg/mL; MIC (E. coli mL308 225; [6]): < 4 µg/mL
CC1CN(Cc2cc(N(C)C)c3c(c2O)C(=O)C2=C(O)[C@]4(O)C(=O)C(C(N)=O)=C(O)[C@@H](N(C)C)[C@@H]4C[C@@H]2C3)CC(C)O1 (stereo partly drawn)	< 4	< 4	
CN(C)c1cc(NC(=O)NC(=O)c2ccccc2)c(O)c2c1C[C@H]1C[C@H]3[C@H](N(C)C)C(O)=C(C(N)=O)C(=O)[C@@]3(O)C(O)=C1C2=O [CH]			MIC (S. aureus RN450; [5]): < 4 µg/mL; MIC (E. coli mL308 225; [6]): > 4 µg/mL
CN(C)[C@@H]1C(O)=C(C(N)=O)C(=O)[C@@]2(O)C(O)=C3C(=O)c4c(ccc(CNCCC(F)(F)F)c4O)C[C@H]3C[C@@H]12	< 4	< 4	
CC(=O)Nc1ccc(-c2ccc(O)c3c2C[C@H]2C[C@H]4[C@H](N(C)C)C(O)=C(C(N)=O)C(=O)[C@@]4(O)C(O)=C2C3=O)cn1	< 4	> 4	
CCOC(=O)c1cccc(-c2ccc(O)c3c2C[C@H]2C[C@H]4[C@H](N(C)C)C(O)=C(C(N)=O)C(=O)[C@@]4(O)C(O)=C2C3=O)c1			MIC (S. aureus RN450; [3]): < 4 µg/mL; MIC (E. coli mL308 225; [4]): < 4 µg/mL
CC(=O)Cc1cc(-c2ccccn2)c2c(c1O)C(=O)C1=C(O)[C@]3(O)C(=O)C(C(N)=O)=C(O)[C@@H](N(C)C)[C@@H]3C[C@@H]1C2	> 4	> 4	
CN(C)c1cc(CNC(=O)CC(F)(F)F)c(O)c2c1C[C@H]1C[C@H]3[C@H](N(C)C)C(O)=C(C(N)=O)C(=O)[C@@]3(O)C(O)=C1C2=O	< 4	< 4	
CN(C)[C@H]1C(O)=C(C(N)=O)C(=O)[C@@]2(O)C(O)=C3C(=O)c4c(O)ccc(-c5ccc(CN6CCCC6)o5)c4C[C@H]3C[C@@H]12 [LM]			MIC (S. aureus RN450; [5]): < 4 µg/mL; MIC (E. coli mL308 225; [6]): < 4 µg/mL
COc1ccc(C=O)cc1-c1ccc(O)c2c1C[C@H]1C[C@H]3[C@@H](N(C)C)C(O)=C(C(N)=O)C(=O)[C@@]3(O)C(O)=C1C2=O [GO]			MIC (S. aureus RN450; [5]): < 4 µg/mL; MIC (E. coli mL308 225; [6]): > 4 µg/mL
CCCCN(c1ccc2c(c1O)C(=O)C1=C(O)[C@]3(O)C(=O)C(C(N)=O)=C(O)[C@@H](N(C)C)[C@@H]3[C@@H](O)[C@@H]1[C@H]2C)C1CCN(C)CC1	< 4	> 4	
CCN(CC)c1ccc(-c2c[nH]c(Nc3ccc4c(c3O)C(=O)C3=C(O)[C@]5(O)C(=O)C(C(N)=O)=C(O)[C@@H](N(C)C)[C@@H]5[C@@H](O)[C@@H]3[C@H]4C)n2)cc1			MIC (S. aureus RN450; [3]): < 4 µg/mL; MIC (E. coli mL308 225; [4]): > 4 µg/mL
CN(C)c1cc(CNC(=O)C(C)(C)C)c(O)c2c1C[C@H]1C[C@H]3[C@H](N(C)C)C(O)=C(C(N)=O)C(=O)[C@@]3(O)C(O)=C1C2=O	< 4	> 4	
CN(C)[C@@H]1C(O)=C(C(N)=O)C(=O)[C@@]2(O)C(O)=C3C(=O)c4c(O)ccc(CN(CC5CC5)CC5CC5)c4C[C@H]3C[C@@H]12 [KC]			MIC (S. aureus RN450; [5]): < 4 µg/mL; MIC (E. coli mL308 225; [6]): < 4 µg/mL
CN(C)[C@@H]1C(O)=C(C(N)=O)C(=O)[C@@]2(O)C(O)=C3C(=O)c4c(O)c(CNc5ccccc5)cc(I)c4C[C@H]3C[C@@H]12	< 4	> 4	
CN(C)[C@@H]1C(O)=C(C(N)=O)C(=O)[C@@]2(O)C(O)=C3C(=O)c4c(O)ccc(-c5cc6ccccc6o5)c4C[C@H]3C[C@@H]12 [drawing 3387]	< 4	> 4	
